{"source": "paper PMC8954523", "about": "(Pharmaceutics, 2022)", "key": {"[1]": {"assay": "Hypothetical transfer thermodynamic functions from solvation functions", "format": "physicochemical", "conditions": "water → n-hexane"}, "[2]": {"conditions": "cited from earlier work"}, "[3]": {"assay": "Apparent distribution coefficient, n-hexane/water, isothermal shake-flask", "format": "physicochemical", "conditions": "298.15 K", "procedure": "The well-known isothermal shake-flask method was applied for the determination of the apparent distribution coefficients in the 1-octanol/water ( Dappoct/w ) and n-hexane/water ( Dapphex/w ) systems. The mutually saturated solvents were prepared by mixing water and organic phases for 24 h and settling and separating from each other. The stock solutions of the drug were made from 1-octanol saturated with water for the 1-octanol/water distribution, and n-hexane saturated with water for the n-hexane/water system. An aliquot of the stock solution was placed in a glass vial together with an aliquot of the respective phase and mixed for 24 h at five temperatures, from 293.15 to 313.15 K (±0.1 K). The concentrations of the compounds were determined spectrophotometrically (Shimadzu 1800, Kyoto, Japan) in a UV region, with an accuracy of 2–4%. The reported experimental values represent the average of at least four replicate experiments.\n(§1) The apparent distribution coefficients were calculated from the molar concentrations of the substance in the phases using the following equation:(10) DCorg/w=C2org/w/C2w/org where DCorg/w is the apparent distribution coefficient, C2org/w and C2w/org are the concentrations (M) of the compound after the distribution in the 1-octanol or n-hexane and water phases, respectively. The apparent distribution coefficients in the mole fraction scale ( DXorg/w ) were calculated by the equation:(11) DXorg/w=X2org/w/X2w/org where X2org/w and X2w/org are the concentrations (mole fract.) of the compound after distribution. The standard Gibbs energy of the transfer ( ΔGtr0) from water to the organic phase was calculated as follows:(12) ΔGtr0=−RT(lnDXorg/w)"}, "[4]": {"assay": "Equilibrium solubility, shake-flask method", "format": "physicochemical", "conditions": "for solubility at 24 h: thermodynamic from solid, read-out: Solubility S2 × 10^6", "procedure": "The standard shake-flask method was applied to determine solubility. The saturated solutions of the studied compound were obtained in glass screw-capped vials with the respective solvent, which were vigorously stirred in an air thermostat. The volumes of water, 1-octanol, n-hexane, and ethanol equaled 7, 2, 7, and 2 mL, respectively. […] After this time period, the saturated solutions stayed in the thermostat during the night, and then the non-dissolved substance was separated from the solution via centrifugation (Biofuge pico, Thermo Electron LED GmbH, Langenselbold, Germany) at the respective temperature for 20 min at 10,000 rpm. […] The experimental results were reported as an average of at least three replicated experiments with an accuracy of 2–4%.\nThe dissolution thermodynamic parameters on the standard state were determined using mole fraction unitary units. Recalculation of the molar solubility to the mole fraction was made as follows:(1) X2=M1S2/S2(M1−M2)+1000ρ, where S2 is the molar solubility of solute (M), M1 and M2 are the molar masses of solvent and solute, respectively, and ρ (g∙cm^−3) is the density of pure solvents. […] The density values of the pure solvents were used in calculations (Table S1)."}, "[5]": {"assay": "Transfer thermodynamic functions from distribution experiments (real transfer)", "format": "physicochemical", "conditions": "298.15 K", "procedure": "as §1\nThe transfer enthalpy ( ΔHtr0) was derived from the temperature dependences of the distribution coefficients by the van’t Hoff approach as:(13) ∂(lnDXorg/w)/∂T=ΔHtr0/RT^2\nThe standard transfer entropy ( ΔStr0 ) was determined by the equation:(14) ΔGtr0=ΔHtr0−TΔStr0\nAs follows, additional information on the thermodynamic functions of this parameter (enthalpies and entropies) was obtained from the temperature dependences in order to disclose the transfer (n-hexane → 1-octanol) thermodynamic mechanisms. To this end, the ∆ln DX values (expressed in mole fraction units) characterizing the transfer (n-hexane → 1-octanol) were calculated as ∆ln DX = ln DXoct/w − ln DXhex/w and the respective thermodynamic functions were determined using Equations (12)–(14). The resulting temperature dependences and the contributions of the enthalpy and entropy terms to the free Gibbs energy of the hypothetical and “real” transfers are shown in Figure 5 and Table 6. […] At the same time, the thermodynamic mechanism of the (n-hexane → 1-octanol) transfer differs from the (water → organic solvents) transitions. In particular, the (n-hexane → 1-octanol) transfer process is enthalpy determined (| ΔHtr0 | > | TΔStr0 |) similar to the (water → 1-octanol) one. Nevertheless, TΔStr0 < 0 testifies to the ordering of the system as opposed to water → 1-octanol and water → n-hexane ( TΔStr0 > 0). It can be concluded that the mechanism of the (n-hexane → 1-octanol) transfer is absolutely different from the (water → n-hexane) and partially agrees with the (water → 1-octanol) transition. Importantly, the regularities estimated from the transferring diagram analysis match the results obtained using the Hansen parameters ( Δδt ^water > Δδt ^n-hexane > Δδt ^1-octanol)."}, "[6]": {"conditions": "n-hexane → 1-octanol, from Δ lnDX"}, "[7]": {"conditions": "water → 1-octanol, real transfer"}, "[8]": {"conditions": "water → n-hexane, real transfer"}}, "note": "Where “and” joins values, the source holds several entries; their conditions need not be identical. Equal values may be shown once. Read-outs that look alike come from different tables or passages of the source."}
{"molecule": "CC(O)(CS(=O)(=O)c1ccc(F)cc1)C(=O)Nc1ccc(C#N)c(C(F)(F)F)c1", "note": "(stereo not drawn) [BCL, bicalutamide]", "values": [{"measurement": "ΔGtr", "setting": "[1]", "value": "−4.8", "unit": "kJ⋅mol^−1"}, {"measurement": "solubility", "setting": "[2]; aqueous", "value": "less than 5 mg∙L^−1"}, {"measurement": "aqueous solubility", "setting": "[2]; ref 10", "value": "approximately 3.7 μg·mL^−1"}, {"measurement": "aqueous solubility", "setting": "[2]; ref 11", "value": 8.85, "unit": "µg/mL"}, {"measurement": "experimental over calculated distribution coefficient", "setting": "[3]; n-hexane/water", "value": 1.9, "unit": "fold"}, {"measurement": "DChex/w, experimental apparent distribution coefficient", "setting": "[3]; n-hexane/water, molarity scale", "value": "1.88 ± 0.04"}, {"measurement": "DC/calchex/w, calculated distribution coefficient", "setting": "[3]; ratio of molar solubilities in n-hexane and water", "value": 1.00}, {"measurement": "Solubility X2 × 10^4", "setting": "[4]; 1-octanol, 293.15 K", "value": 2.23, "unit": "mole fract."}, {"measurement": "Solubility X2", "setting": "[4]; 1-octanol, 298.15 K", "value": "2.57 × 10^−4 mole fract."}, {"measurement": "Solubility X2 × 10^4", "setting": "[4]; 1-octanol, 298.15 K", "value": 2.57, "unit": "mole fract."}, {"measurement": "Solubility X2 × 10^4", "setting": "[4]; 1-octanol, 303.15 K", "value": 3.00, "unit": "mole fract."}, {"measurement": "Solubility X2 × 10^4", "setting": "[4]; 1-octanol, 308.15 K", "value": 3.40, "unit": "mole fract."}, {"measurement": "Solubility X2 × 10^4", "setting": "[4]; 1-octanol, 313.15 K", "value": 3.95, "unit": "mole fract."}, {"measurement": "Solubility X2 × 10^3", "setting": "[4]; ethanol, 293.15 K", "value": 1.15, "unit": "mole fract."}, {"measurement": "Solubility X2", "setting": "[4]; ethanol, 298.15 K", "value": "1.42 × 10^−3 mole fract."}, {"measurement": "Solubility X2 × 10^3", "setting": "[4]; ethanol, 298.15 K", "value": 1.42, "unit": "mole fract."}, {"measurement": "X2 298.15", "setting": "[4]; ethanol, 298.15 K", "value": "1.42 × 10^−3"}, {"measurement": "Solubility X2 × 10^3", "setting": "[4]; ethanol, 303.15 K", "value": 1.74, "unit": "mole fract."}, {"measurement": "Solubility X2 × 10^3", "setting": "[4]; ethanol, 308.15 K", "value": 2.11, "unit": "mole fract."}, {"measurement": "Solubility X2 × 10^3", "setting": "[4]; ethanol, 313.15 K", "value": 2.43, "unit": "mole fract."}, {"measurement": "solubility in ethanol as compared to 1-octanol", "setting": "[4]; mole fraction, 298.15 K", "value": 5.5, "unit": "fold"}, {"measurement": "Solubility X2 × 10^6", "setting": "[4]; n-hexane, 293.15 K", "value": 0.74, "unit": "mole fract."}, {"measurement": "Solubility X2", "setting": "[4]; n-hexane, 298.15 K", "value": "1.07 × 10^−6 mole fract."}, {"measurement": "Solubility X2 × 10^6", "setting": "[4]; n-hexane, 298.15 K", "value": 1.07, "unit": "mole fract."}, {"measurement": "X2 298.15", "setting": "[4]; n-hexane, 298.15 K", "value": "1.07 × 10^−6"}, {"measurement": "Solubility X2 × 10^6", "setting": "[4]; n-hexane, 303.15 K", "value": 1.50, "unit": "mole fract."}, {"measurement": "Solubility X2 × 10^6", "setting": "[4]; n-hexane, 308.15 K", "value": 2.04, "unit": "mole fract."}, {"measurement": "Solubility X2 × 10^6", "setting": "[4]; n-hexane, 313.15 K", "value": 2.76, "unit": "mole fract."}, {"measurement": "Solubility X2 × 10^6", "setting": "[4]; n-hexane, 318.15 K", "value": 3.63, "unit": "mole fract."}, {"measurement": "solubility at 24 h", "setting": "[4]; n-hexane, organic solvent or mixture, n-hexane, 293.15 K", "value": 5.67, "unit": "µM"}, {"measurement": "solubility at 24 h", "setting": "[4]; n-hexane, organic solvent or mixture, n-hexane, 298.15 K", "value": 8.12, "unit": "µM"}, {"measurement": "solubility at 24 h", "setting": "[4]; n-hexane, organic solvent or mixture, n-hexane, 303.15 K", "value": 11.3, "unit": "µM"}, {"measurement": "solubility at 24 h", "setting": "[4]; n-hexane, organic solvent or mixture, n-hexane, 308.15 K", "value": 15.3, "unit": "µM"}, {"measurement": "solubility at 24 h", "setting": "[4]; n-hexane, organic solvent or mixture, n-hexane, 313.15 K", "value": 20.5, "unit": "µM"}, {"measurement": "solubility at 24 h", "setting": "[4]; n-hexane, organic solvent or mixture, n-hexane, 318.15 K", "value": 26.8, "unit": "µM"}, {"measurement": "Solubility X2 × 10^7", "setting": "[4]; water, 293.15 K", "value": 1.12, "unit": "mole fract."}, {"measurement": "Solubility X2", "setting": "[4]; water, 298.15 K", "value": "1.47 × 10^−7 mole fract."}, {"measurement": "Solubility X2 × 10^7", "setting": "[4]; water, 298.15 K", "value": 1.47, "unit": "mole fract."}, {"measurement": "X2 298.15", "setting": "[4]; water, 298.15 K", "value": "1.47 × 10^−7"}, {"measurement": "Solubility X2 × 10^7", "setting": "[4]; water, 303.15 K", "value": 1.90, "unit": "mole fract."}, {"measurement": "Solubility X2 × 10^7", "setting": "[4]; water, 308.15 K", "value": 2.35, "unit": "mole fract."}, {"measurement": "Solubility X2 × 10^7", "setting": "[4]; water, 313.15 K", "value": 2.97, "unit": "mole fract."}, {"measurement": "solubility at 24 h", "setting": "[4]; water, water, 293.15 K", "value": 6.24, "unit": "µM"}, {"measurement": "solubility at 24 h", "setting": "[4]; water, water, 298.15 K", "value": 8.14, "unit": "µM"}, {"measurement": "solubility at 24 h", "setting": "[4]; water, water, 303.15 K", "value": 10.5, "unit": "µM"}, {"measurement": "solubility at 24 h", "setting": "[4]; water, water, 308.15 K", "value": 12.9, "unit": "µM"}, {"measurement": "solubility at 24 h", "setting": "[4]; water, water, 313.15 K", "value": 16.4, "unit": "µM"}, {"measurement": "DXorg/w (Δ lnDX parameter line)", "setting": "[5]; 1-octanol/n-hexane (n-hexane → 1-octanol), mole fraction scale", "value": 425.33}, {"measurement": "TΔStr0", "setting": "[5]; [6]", "value": -4.18, "unit": "kcal/mol"}, {"measurement": "ΔGtr0", "setting": "[5]; [6]", "value": "-3.59 ± 0.096", "unit": "kcal/mol"}, {"measurement": "ΔHtr0", "setting": "[5]; [6]", "value": "-7.77 ± 0.382", "unit": "kcal/mol"}, {"measurement": "ΔStr0", "setting": "[5]; [6]", "value": "−58.7 ± 4.1", "unit": "J⋅mol^−1⋅K^−1"}, {"measurement": "TΔStr0", "setting": "[5]; [7]", "value": 1.55, "unit": "kcal/mol"}, {"measurement": "ΔGtr0", "setting": "[5]; [7]", "value": "-5.14 kcal/mol and -5.14 ± 0.096 kcal/mol"}, {"measurement": "ΔHtr0", "setting": "[5]; [7]", "value": "-3.59 ± 0.048", "unit": "kcal/mol"}, {"measurement": "ΔStr0", "setting": "[5]; [7]", "value": "21.8 ± 0.7", "unit": "J⋅mol^−1⋅K^−1"}, {"measurement": "TΔStr0", "setting": "[5]; [8]", "value": 5.76, "unit": "kcal/mol"}, {"measurement": "ΔGtr0", "setting": "[5]; [8]", "value": "-1.55 kcal/mol and -1.55 ± 0.048 kcal/mol"}, {"measurement": "ΔHtr0", "setting": "[5]; [8]", "value": "4.21 ± 0.43", "unit": "kcal/mol"}, {"measurement": "ΔStr0", "setting": "[5]; [8]", "value": "80.8 ± 9.9", "unit": "J⋅mol^−1⋅K^−1"}]}
